Results reported in ChEMBL document CHEMBL1833947, “Synthesis and biological investigation of potential atypical antipsychotics with a tropane core. Part 1” (Eur J Med Chem, 2011).
Activity calls are given as the source filed them. No cut-off for these calls is given here.

What was measured:
Mus musculus [1] = assay: Antidepressant-like activity in Swiss albino mouse assessed as immobilization time at 1 mg/kg, sc after 30 mins by forced swim test; type: functional; conditions: route subcutaneous
Mus musculus [2] = assay: Antidepressant-like activity in Swiss albino mouse assessed as immobilization time at 2 mg/kg, sc after 30 mins by forced swim test; type: functional; conditions: route subcutaneous
Mus musculus [3] = assay: Antidepressant-like activity in Swiss albino mouse assessed as immobilization time at 2.5 mg/kg, ip after 30 mins by forced swim test; type: functional, organism-based; parameters: dose 2.5 mg/kg
Mus musculus [4] = species: Mus musculus; conditions: Swiss albino, 5 mg/kg
Description: Hypothermic effect in Swiss albino mouse assessed as change in body temperature at 5 mg/kg, ip measured after 60 mins

Mus musculus [5] = species: Mus musculus; conditions: Swiss albino, 2.5 mg/kg
Description: Hypothermic effect in Swiss albino mouse assessed as change in body temperature at 2.5 mg/kg, ip measured after 90 mins

Mus musculus [6] = species: Mus musculus; conditions: Swiss albino, 5 mg/kg; remark: listed apart in the source
Description: Hypothermic effect in Swiss albino mouse assessed as change in body temperature at 5 mg/kg, ip measured after 120 mins

[7] = target: 5-hydroxytryptamine receptor 2A (Rattus norvegicus, UniProt P14842); assay: Displacement of [3H]ketanserin from 5HT2A in rat brain cerebral cortex after 20 mins by scintillation counting; type: tissue-based
Sequence of 5-hydroxytryptamine receptor 2A (P14842 whole entry): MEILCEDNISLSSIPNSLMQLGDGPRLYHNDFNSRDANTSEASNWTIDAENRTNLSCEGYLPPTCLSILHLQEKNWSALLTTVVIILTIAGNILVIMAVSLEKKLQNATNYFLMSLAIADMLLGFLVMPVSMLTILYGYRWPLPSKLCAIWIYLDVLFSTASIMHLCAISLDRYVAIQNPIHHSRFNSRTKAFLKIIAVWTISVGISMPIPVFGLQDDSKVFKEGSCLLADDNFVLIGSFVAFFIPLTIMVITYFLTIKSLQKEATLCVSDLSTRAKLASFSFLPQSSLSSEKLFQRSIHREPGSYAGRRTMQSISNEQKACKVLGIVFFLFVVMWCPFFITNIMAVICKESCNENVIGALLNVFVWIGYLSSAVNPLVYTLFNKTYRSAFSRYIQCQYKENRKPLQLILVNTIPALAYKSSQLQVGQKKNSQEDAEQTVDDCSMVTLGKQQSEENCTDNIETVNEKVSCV

Rattus norvegicus [8] = assay: Induction of 5HT1A receptor in rat assesses as lower lip retractions at 5 mg/kg, iv after 15 mins (reference value: 0.1 +/- 0.1 retractions); type: functional
Mus musculus [9] = assay: Antipsychotic activity in mouse assessed as reversal of DOI-induced head twitches at 5 mg/kg, ip administered 30 mins before DOI challenge; type: functional; conditions: route intraperitoneal
Rattus norvegicus [10] = assay: Antipsychotic activity in 8-OH-DPAT-stimulated rat assessed as lower lip retractions at 10 mg/kg, iv administered 45 mins before 8-OH-DPAT challenge measured after 15 to 45 mins (reference value: 2.9 retractions); type: functional
Mus musculus [11] = species: Mus musculus; conditions: Swiss albino, 5 mg/kg; remark: listed apart in the source
Description: Hypothermic effect in Swiss albino mouse assessed as change in body temperature at 5 mg/kg, ip measured after 30 mins in presence of 0.1 mg/kg, sc 5-HT1A antagonist WAY 100635

Mus musculus [12] = species: Mus musculus; conditions: Swiss albino, 5 mg/kg; remark: listed apart in the source
Description: Hypothermic effect in Swiss albino mouse assessed as change in body temperature at 5 mg/kg, ip measured after 30 mins

Rattus norvegicus [13] = assay: Antipsychotic activity in 8-OH-DPAT-stimulated rat assessed as lower lip retractions at 20 mg/kg, iv administered 45 mins before 8-OH-DPAT challenge measured after 15 to 45 mins (reference value: 2.9 retractions); type: functional
Mus musculus [14] = assay: Antipsychotic activity in mouse assessed as reversal of DOI-induced head twitches at 10 mg/kg, ip administered 30 mins before DOI challenge; type: functional; conditions: route intraperitoneal
Mus musculus [15] = assay: Antipsychotic activity in mouse assessed as reversal of DOI-induced head twitches at 20 mg/kg, ip administered 30 mins before DOI challenge; type: functional; conditions: route intraperitoneal
Mus musculus [16] = species: Mus musculus; conditions: Swiss albino, 5 mg/kg; remark: listed apart in the source
Description: Hypothermic effect in Swiss albino mouse assessed as change in body temperature at 5 mg/kg, ip measured after 60 mins in presence of 0.1 mg/kg, sc 5-HT1A antagonist WAY 100635

[17] = target: T1, 5-hydroxytryptamine receptor 1A (Rattus norvegicus, UniProt P19327); assay: Displacement of [3H]8OH-DPAT from 5HT1A in rat brain cerebral cortex after 15 mins by scintillation counting; type: tissue-based
T1 sequence (P19327 whole entry): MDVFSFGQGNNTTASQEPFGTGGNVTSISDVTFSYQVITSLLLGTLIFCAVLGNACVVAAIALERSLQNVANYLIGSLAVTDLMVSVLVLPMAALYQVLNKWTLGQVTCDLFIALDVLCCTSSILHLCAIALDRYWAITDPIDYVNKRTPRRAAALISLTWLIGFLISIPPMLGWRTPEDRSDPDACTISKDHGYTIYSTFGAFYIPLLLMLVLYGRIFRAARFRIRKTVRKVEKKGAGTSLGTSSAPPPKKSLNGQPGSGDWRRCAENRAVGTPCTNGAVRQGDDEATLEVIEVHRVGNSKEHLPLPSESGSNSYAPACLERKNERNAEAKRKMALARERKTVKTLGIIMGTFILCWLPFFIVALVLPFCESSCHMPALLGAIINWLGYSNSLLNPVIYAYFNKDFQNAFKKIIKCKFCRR

Mus musculus [18] = species: Mus musculus; conditions: Swiss albino, 2.5 mg/kg; remark: listed apart in the source
Description: Hypothermic effect in Swiss albino mouse assessed as change in body temperature at 2.5 mg/kg, ip measured after 30 mins

Rattus norvegicus [19] = assay: Induction of 5HT1A receptor in rat assesses as lower lip retractions at 20 mg/kg, iv after 15 mins (reference value: 0.1 +/- 0.1 retractions); type: functional
D(2) dopamine receptor = D(2) dopamine receptor (Rattus norvegicus, UniProt P61169); assay: Displacement of [3H]spiperone from dopamine D2 receptor in rat striatum tissue after 20 mins by scintillation counting; type: tissue-based
Sequence of D(2) dopamine receptor (P61169 whole entry): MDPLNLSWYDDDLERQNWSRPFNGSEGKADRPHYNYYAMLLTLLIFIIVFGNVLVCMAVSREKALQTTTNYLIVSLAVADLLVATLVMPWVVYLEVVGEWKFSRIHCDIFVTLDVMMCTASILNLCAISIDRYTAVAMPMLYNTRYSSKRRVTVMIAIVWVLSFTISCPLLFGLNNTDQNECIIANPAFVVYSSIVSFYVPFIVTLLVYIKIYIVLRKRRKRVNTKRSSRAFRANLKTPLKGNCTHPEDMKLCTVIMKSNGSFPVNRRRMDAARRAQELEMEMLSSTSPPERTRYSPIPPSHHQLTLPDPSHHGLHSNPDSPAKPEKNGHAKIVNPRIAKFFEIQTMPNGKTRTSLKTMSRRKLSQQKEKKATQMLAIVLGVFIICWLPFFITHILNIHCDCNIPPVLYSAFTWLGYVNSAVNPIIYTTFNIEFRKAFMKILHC

Mus musculus [20] = assay: Anxiolytic-like activity in mouse assessed as number of punished crossing at 5 mg/kg, ip after 6 mins by four-plate test (reference value: 1514 +/- 73 crossings); type: functional; conditions: route intraperitoneal
Mus musculus [21] = assay: Anxiolytic-like activity in mouse assessed as number of punished crossing at 5 mg/kg, ip after 30 mins by four-plate test (reference value: 1514 +/- 73 crossings); type: functional; conditions: route intraperitoneal
Rattus norvegicus [22] = assay: Induction of 5HT1A receptor in rat assesses as lower lip retractions at 10 mg/kg, iv after 15 mins (reference value: 0.1 +/- 0.1 retractions); type: functional
Rattus norvegicus [23] = assay: Antipsychotic activity in 8-OH-DPAT-stimulated rat assessed as lower lip retractions at 5 mg/kg, iv administered 45 mins before 8-OH-DPAT challenge measured after 15 to 45 mins (reference value: 2.9 retractions); type: functional
Mus musculus [24] = species: Mus musculus; conditions: Swiss albino, 2.5 mg/kg; remark: listed apart in the source
Description: Hypothermic effect in Swiss albino mouse assessed as change in body temperature at 2.5 mg/kg, ip measured after 120 mins

Mus musculus [25] = assay: Antidepressant-like activity in Swiss albino mouse assessed as immobilization time at 5 mg/kg, ip after 30 mins by forced swim test; type: functional, organism-based; parameters: dose 5 mg/kg
Mus musculus [26] = species: Mus musculus; conditions: Swiss albino, 2.5 mg/kg; remark: listed apart in the source
Description: Hypothermic effect in Swiss albino mouse assessed as change in body temperature at 2.5 mg/kg, ip measured after 60 mins

Mus musculus [27] = species: Mus musculus; conditions: Swiss albino, 5 mg/kg; remark: listed apart in the source
Description: Hypothermic effect in Swiss albino mouse assessed as change in body temperature at 5 mg/kg, ip measured after 90 mins

Rattus norvegicus [28] = assay: Induction of 5HT1A receptor in rat assesses as lower lip retractions at 0.1 mg/kg, iv after 15 mins (reference value: 0.1 +/- 0.1 retractions); type: functional
Rattus norvegicus [29] = assay: Antipsychotic activity in 8-OH-DPAT-stimulated rat assessed as lower lip retractions at 0.1 mg/kg, iv administered 45 mins before 8-OH-DPAT challenge measured after 15 to 45 mins (reference value: 2.9 retractions); type: functional
Mus musculus [30] = species: Mus musculus; conditions: Swiss albino, 20 mg/kg
Description: Hypothermic effect in Swiss albino mouse assessed as change in body temperature at 20 mg/kg, ip measured after 45 mins in presence of 5 mg/kg, sc 8-OH-DPAT

Mus musculus [31] = species: Mus musculus; conditions: Swiss albino, 20 mg/kg; remark: listed apart in the source
Description: Hypothermic effect in Swiss albino mouse assessed as change in body temperature at 20 mg/kg, ip measured after 90 mins

Mus musculus [32] = species: Mus musculus; conditions: Swiss albino, 20 mg/kg; remark: listed apart in the source
Description: Hypothermic effect in Swiss albino mouse assessed as change in body temperature at 20 mg/kg, ip measured after 60 mins

Mus musculus [33] = species: Mus musculus; conditions: Swiss albino, 10 mg/kg
Description: Hypothermic effect in Swiss albino mouse assessed as change in body temperature at 10 mg/kg, ip measured after 60 mins

Mus musculus [34] = assay: Antipsychotic activity in mouse assessed as reversal of apomorphine-induced mesh climbing response at 50 mg/kg, ip administered 10 mins prior to apomorphine challenge measured after 30 mins; type: functional, organism-based; parameters: dose 50 mg/kg
Mus musculus [35] = species: Mus musculus; conditions: Swiss albino, 20 mg/kg; remark: listed apart in the source
Description: Hypothermic effect in Swiss albino mouse assessed as change in body temperature at 20 mg/kg, ip measured after 30 mins in presence of 5 mg/kg, sc 8-OH-DPAT

Mus musculus [36] = assay: Antipsychotic activity in mouse assessed as reversal of apomorphine-induced mesh climbing response at 50 mg/kg, ip administered 20 mins prior to apomorphine challenge measured after 40 mins
Mus musculus [37] = species: Mus musculus; conditions: Swiss albino, 20 mg/kg; remark: listed apart in the source
Description: Hypothermic effect in Swiss albino mouse assessed as change in body temperature at 20 mg/kg, ip measured after 30 mins

Mus musculus [38] = species: Mus musculus; conditions: Swiss albino, 10 mg/kg; remark: listed apart in the source
Description: Hypothermic effect in Swiss albino mouse assessed as change in body temperature at 10 mg/kg, ip measured after 30 mins

Mus musculus [39] = species: Mus musculus; conditions: Swiss albino, 20 mg/kg; remark: listed apart in the source
Description: Hypothermic effect in Swiss albino mouse assessed as change in body temperature at 20 mg/kg, ip measured after 120 mins

Mus musculus [40] = species: Mus musculus; conditions: Swiss albino, 10 mg/kg; remark: listed apart in the source
Description: Hypothermic effect in Swiss albino mouse assessed as change in body temperature at 10 mg/kg, ip measured after 120 mins

Mus musculus [41] = species: Mus musculus; conditions: Swiss albino, 20 mg/kg; remark: listed apart in the source
Description: Hypothermic effect in Swiss albino mouse assessed as change in body temperature at 20 mg/kg, ip measured after 15 mins in presence of 5 mg/kg, sc 8-OH-DPAT

Mus musculus [42] = species: Mus musculus; conditions: Swiss albino, 10 mg/kg; remark: listed apart in the source
Description: Hypothermic effect in Swiss albino mouse assessed as change in body temperature at 10 mg/kg, ip measured after 90 mins

Mus musculus [43] = species: Mus musculus; conditions: Swiss albino, 20 mg/kg; remark: listed apart in the source
Description: Hypothermic effect in Swiss albino mouse assessed as change in body temperature at 20 mg/kg, ip measured after 60 mins in presence of 5 mg/kg, sc 8-OH-DPAT

Mus musculus [44] = assay: Antidepressant-like activity in Swiss albino mouse assessed as immobilization time at 10 mg/kg, ip after 30 mins by forced swim test; type: functional; conditions: route intraperitoneal
Mus musculus [45] = species: Mus musculus; conditions: Swiss albino, 20 mg/kg; remark: listed apart in the source
Description: Hypothermic effect in Swiss albino mouse assessed as change in body temperature at 20 mg/kg, ip measured after 60 mins in presence of 0.1 mg/kg, sc 5-HT1A antagonist WAY 100635

Mus musculus [46] = assay: Anxiolytic-like activity in mouse assessed as number of punished crossing at 10 mg/kg, ip after 30 mins by four-plate test (reference value: 554 +/- 46 crossings); type: functional; conditions: route intraperitoneal
Mus musculus [47] = assay: Antidepressant-like activity in Swiss albino mouse assessed as immobilization time at 20 mg/kg, ip after 30 mins by forced swim test; type: functional, organism-based; parameters: dose 20 mg/kg
Mus musculus [48] = assay: Anxiolytic-like activity in mouse assessed as number of punished crossing at 10 mg/kg, ip after 6 mins by four-plate test (reference value: 554 +/- 46 crossings); type: functional; conditions: route intraperitoneal
Mus musculus [49] = species: Mus musculus; conditions: Swiss albino, 20 mg/kg; remark: listed apart in the source
Description: Hypothermic effect in Swiss albino mouse assessed as change in body temperature at 20 mg/kg, ip measured after 30 mins in presence of 0.1 mg/kg, sc 5-HT1A antagonist WAY 100635

SMILES | deltaT (Mus musculus [4]) [°C] | deltaT (Mus musculus [6]) [°C] | Ki [7] [nM] | Activity (Mus musculus [9]) [%] | Activity (Rattus norvegicus [10]) | deltaT (Mus musculus [12]) [°C] | Activity (Rattus norvegicus [13]) | Activity (Mus musculus [15]) [%] | Ki [17] [nM] | Activity (Rattus norvegicus [19]) | Ki (D(2) dopamine receptor) [nM] | Activity (Rattus norvegicus [22]) | deltaT (Mus musculus [27]) [°C] | deltaT (Mus musculus [31]) [°C] | deltaT (Mus musculus [32]) [°C] | deltaT (Mus musculus [37]) [°C] | deltaT (Mus musculus [39]) [°C] | other results
Br.CCCN(CCC)C1CCc2cccc(O)c2C1 (stereo not drawn) | – | – | – | – | – | – | – | – | – | – | – | – | – | – | – | – | – | Activity (Mus musculus [1]): 45%; Activity (Mus musculus [2]): 57%
O=C(N[C@@H]1CC2CC[C@H](C1)N2Cc1ccccc1)c1ccc2ccccc2c1 (single isomer, unassigned) | -0.9 | -0.5 | 2.5 | 81 | 2.6 | -1.5 | 2.6 | 100 | 304 | 0.1 | 82.4 | 0.2 | -0.6 | – | – | – | – | Activity (Mus musculus [3]): inactive; deltaT (Mus musculus [5]): -0.1 °C; Activity (Rattus norvegicus [8]): 0.1; deltaT (Mus musculus [11]): -1.3 °C; Activity (Mus musculus [14]): 95%; deltaT (Mus musculus [16]): -0.9 °C; deltaT (Mus musculus [18]): -0.2 °C; Activity (Mus musculus [20]): 15; Activity (Mus musculus [21]): 321; Activity (Rattus norvegicus [23]): 2.7; deltaT (Mus musculus [24]): 0 °C; Activity (Mus musculus [25]): inactive; deltaT (Mus musculus [26]): 0.1 °C
COc1ccccc1N1CCN(CCN(C(=O)C2CCCCC2)c2ccccn2)CC1.Cl.Cl.Cl | – | – | – | – | – | – | – | – | – | – | – | – | – | – | – | – | – | Activity (Rattus norvegicus [28]): 0; Activity (Rattus norvegicus [29]): 0.3
COc1cc(N)c(Cl)cc1C(=O)N[C@@H]1CC2CC[C@H](C1)N2CC1CCCO1 (single isomer, unassigned) | -0.1 | 0 | 6.2 | 63 | 2.4 | -0.1 | 2.4 | 92 | 5700 | 0.5 | 103 | 0.3 | 0 | -0.1 | -0.3 | -0.8 | -0.1 | deltaT (Mus musculus [30]): -1.6 °C; deltaT (Mus musculus [33]): 0 °C; Activity (Mus musculus [34]): Active; deltaT (Mus musculus [35]): -2.9 °C; Activity (Mus musculus [36]): Active; deltaT (Mus musculus [38]): -0.2 °C; deltaT (Mus musculus [40]): 0 °C; deltaT (Mus musculus [41]): -2.9 °C; deltaT (Mus musculus [42]): -0.1 °C; deltaT (Mus musculus [43]): -0.6 °C
O=C(N[C@H]1CC2CC[C@H](C1)N2Cc1ccco1)c1ccc2ccccc2c1 (single isomer, unassigned) | 0.1 | 0.1 | 24.1 | – | 2.7 | -0.2 | 2 | – | 2800 | 0.6 | 203 | 0.1 | 0.1 | -0.4 | -0.8 | -1.3 | -0.2 | Activity (Mus musculus [44]): 9%; deltaT (Mus musculus [45]): -1.1 °C; Activity (Mus musculus [46]): 566; Activity (Mus musculus [47]): inactive; Activity (Mus musculus [48]): 233; deltaT (Mus musculus [49]): -1.2 °C
